Source: patent publication US9212187B2, “Nitrogen-containing compounds and pharmaceutical compositions thereof for the treatment of atrial fibrillation” (OTSUKA PHARMACEUTICAL CO., LTD., priority 2009, dated 2015)
Structures can show the parent of a compound that is named as a salt.

Target: human Kv1.5 channels (Homo sapiens (Human), UniProt P22460)
Experiment: Measurement of human Kv1.5 channel current by whole-cell patch clamp method (human Kv1.5-expressing CHO-K1 cell line), Pharmacological Test 1
Format: cell-based
Details: First Invention, Table 2, human Kv1.5-expressing CHO-K1 cells, step end current at +40 mV
Experimental: Pharmacological Test 1 (1) Production of Human Kv1.5-Expressing CHO-K1 Cell Lines
CHO-K1 cell lines stably expressing human Kv1.5 channels were prepared in the following manner.
Full-length human Kv1.5 cDNA was cloned from a human heart cDNA library (produced by Stratagene). The obtained human Kv1.5 sequence corresponds to the sequence described in FASEB J. 5, 331-337 (1991).
The obtained human Kv1.5 cDNA was inserted into a plasmid encoding a CMV promoter and a G418 resistance marker to produce a Kv1.5 expression vector. The human Kv1.5 expression vector was transfected into CHO-K1 cells by the lipofectamine method. After culturing the cells in an F-12 medium (produced by Invitrogen Corp.) containing 10% FBS (produced by Invitrogen Corp.) for 3 or 4 days, the medium was replaced with a FBS-containing F-12 medium that included 1,000 μg/ml of G418 (produced by Invitrogen Corp.), and single colonies were isolated. The amount of Kv1.5 channel expression in the single colonies was quantified at the mRNA level by RT-PCR and then quantified at the protein level by western blotting. Finally, the expressed current was analyzed by patch clamp method. […]
Depolarizing stimulation pulses were applied and ionic current was recorded by using a patch clamp amplifier (EPC-7 or EPC-7 PLUS, produced by HEKA) and a personal computer (manufactured by IBM Corp.) in which software for data acquisition and analysis of ion channel current (PULSE 8.77, produced by HEKA) was installed. The current was measured in the whole-cell configuration of the patch-clamp technique. […] Subsequently, the series resistance (Rs) between the pipette and the interior of the cell was measured and corrected. […]
While the membrane potential was holded at −80 mV, depolarizing pulses (−80 mV for 0.05 seconds→□□+40 mV for 0.2 seconds →□□−40 mV for 0.2 seconds→□□−80 mV for 0.05 seconds) were applied at a stimulation frequency of 1 Hz to measure Kv1.5 channel current. […] The current obtained during the pulse application was recorded as a current in the absence of the test compounds. […]

Chain of human Kv1.5 channels (P22460 whole entry): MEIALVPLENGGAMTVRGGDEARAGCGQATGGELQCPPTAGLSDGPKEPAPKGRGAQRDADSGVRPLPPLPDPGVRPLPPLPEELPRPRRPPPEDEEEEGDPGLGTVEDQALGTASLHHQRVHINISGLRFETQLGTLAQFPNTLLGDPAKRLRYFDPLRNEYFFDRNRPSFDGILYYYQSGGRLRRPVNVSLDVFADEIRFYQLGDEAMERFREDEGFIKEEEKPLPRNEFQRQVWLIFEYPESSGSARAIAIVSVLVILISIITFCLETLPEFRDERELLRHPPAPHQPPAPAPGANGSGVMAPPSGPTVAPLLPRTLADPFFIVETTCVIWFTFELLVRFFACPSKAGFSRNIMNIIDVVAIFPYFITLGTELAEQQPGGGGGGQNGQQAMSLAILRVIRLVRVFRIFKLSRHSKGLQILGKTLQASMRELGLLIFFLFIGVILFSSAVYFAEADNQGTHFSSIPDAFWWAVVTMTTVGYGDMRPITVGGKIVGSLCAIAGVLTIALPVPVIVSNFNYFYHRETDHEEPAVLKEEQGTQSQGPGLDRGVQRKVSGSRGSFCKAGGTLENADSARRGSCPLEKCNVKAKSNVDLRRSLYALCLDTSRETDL

| SMILES | IC50 |
| --- | --- |
| CCN1C(=O)C(C)(C)C(=O)N(C)c2cc(CN(CCn3ccc4oc(C)cc4c3=O)Cc3cccnc3COC)ccc21 [Example 317, 1-Ethyl-7-({N-(2-methoxymethylpyridin-3-ylmethyl)-N-[2-(2-methyl-4-oxo-4H-furo[3,2-c]pyridin-5-yl)ethyl]amino}methyl)-3,3,5-trimethyl-1,5-dihydrobenzo[b][1,4]diazepine-2,4-dione] | 630 nM |
| CCN1C(=O)C(C)(C)C(=O)N(C)c2cc(CN(CCc3cccnc3)C(=O)Cc3cn(C)c4ccccc34)ccc21 [Example 330, N-(1-Ethyl-3,3,5-trimethyl-2,4-dioxo-2,3,4,5-tetrahydro-1H-benzo[b][1,4]diazepin-7-ylmethyl)-2-(1-methyl-1H-indol-3-yl)-N-(2-pyridin-3-ylethyl)acetamide hydrochloride] | 860 nM |
| CCN1C(=O)C(C)(C)C(=O)N(C)c2cc(CN(CCn3cc(C)c4occc4c3=O)Cc3cccnc3COC)ccc21 [Example 318, 1-Ethyl-7-({N-(2-methoxymethylpyridin-3-ylmethyl)-N-[2-(7-methyl-4-oxo-4H-furo[3,2-c]pyridin-5-yl)ethyl]amino}methyl)-3,3,5-trimethyl-1,5-dihydrobenzo[b][1,4]diazepine-2,4-dione] | 2900 nM |
